IC50 data for four compounds are collected here from patent US9474790B2, “Stable, protracted GLP-1/glucagon receptor co-agonists for medical use” (Novo Nordisk A/S, priority 2013, dated 2016).

Numbered stars: 1 amine (or outer) side, 2 acyl side, 3 side chain; on linkers, the order of the positions; unused ones are H or OH. Bridge positions count the residues as written; N and C are the ends. Square brackets hold non-standard residues; d marks the D form. Side chains are listed from the residue outwards. Peptide text beside a SMILES is read from it. I, II: the chains in the order shown. * marks the point of attachment. C18 diacid = O=C(O)CCCCCCCCCCCCCCCCC(=O)*; γGlu = O=C(O)[C@H](CCC(=O)[*:2])N[*:1]; Ac4c = NC1(C(=O)O)CCC1; AEEA = NCCOCCOCC(=O)O; Aib = CC(C)(N)C(=O)O

One may read the IC50 as the concentration that inhibits the measured activity by half.

T1 sequence (P47871 26-477): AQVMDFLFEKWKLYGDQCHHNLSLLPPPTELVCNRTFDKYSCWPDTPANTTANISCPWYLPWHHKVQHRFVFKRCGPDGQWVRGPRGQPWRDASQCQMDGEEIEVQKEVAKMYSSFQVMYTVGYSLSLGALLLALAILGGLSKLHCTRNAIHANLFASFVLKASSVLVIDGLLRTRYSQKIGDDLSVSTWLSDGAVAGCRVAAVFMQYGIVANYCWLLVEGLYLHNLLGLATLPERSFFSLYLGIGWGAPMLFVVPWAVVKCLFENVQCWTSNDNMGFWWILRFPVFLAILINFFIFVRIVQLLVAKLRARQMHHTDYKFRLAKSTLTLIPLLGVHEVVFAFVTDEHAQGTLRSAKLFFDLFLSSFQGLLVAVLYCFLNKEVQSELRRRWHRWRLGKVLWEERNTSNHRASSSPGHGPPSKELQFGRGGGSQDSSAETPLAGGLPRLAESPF

The test concerns the target T1, human glucagon receptor (Homo sapiens, UniProt P47871).
T1 construct: expressed in transfected cells; host or cells: BHK cells (parent BHK570, CRE luciferase clone BHK/KZ10-20-48), clone pLJ6'-4-25
As to the kind of experiment: Glucagon receptor binding, 125I-glucagon displacement SPA on isolated membranes. To be noted: displacement of 125I-glucagon from membranes; read-out: IC50 GlucR. Summed up:
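Displacement IC50 derived by non-linear regression of SPA counts after 2 h, 25 °C incubation of compound with [125I]-glucagon (480 pM solution, 25 μl) and membranes of hGCGR-transfected BHK cells. Buffer was HEPES pH 7.4 with ovalbumin; serum albumin was held at 0.001% max or 0.2% final.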
For orientation: In a radioligand displacement assay an active substance lowers the binding of a labelled ligand.
For `CC(C)C[C@H](NC(=O)[C@H](Cc1ccc(O)cc1)NC(=O)[C@H](CCCCN)NC(=O)[C@H](CO)NC(=O)[C@H](CC(C)C)NC(=O)[C@H](CC(=O)O)NC(=O)[C@H](CO)NC(=O)[C@@H](NC(=O)[C@H](Cc1ccccc1)NC(=O)[C@@H](NC(=O)CNC(=O)[C@H](CCC(N)=O)NC(=O)C(C)(C)NC(=O)[C@@H](N)Cc1c[nH]cn1)[C@@H](C)O)[C@@H](C)O)C(=O)N[C@@H](CCC(=O)O)C(=O)N[C@@H](CO)C(=O)N[C@@H](CCCNC(=N)N)C(=O)N[C@@H](CCCNC(=N)N)C(=O)N[C@@H](C)C(=O)N[C@@H](CCCNC(=N)N)C(=O)N[C@@H](CCC(=O)O)C(=O)N[C@@H](Cc1ccccc1)C(=O)N[C@H](C(=O)N[C@@H](CCC(N)=O)C(=O)N[C@@H](Cc1c[nH]c2ccccc12)C(=O)N[C@@H](CC(C)C)C(=O)N[C@@H](CC(C)C)C(=O)N[C@@H](CCCCNC(=O)CC[C@H](NC(=O)CC[C@H](NC(=O)CC[C@H](NC(=O)CCCCCCCCCCCCCCCCC(=O)O)C(=O)O)C(=O)O)C(=O)O)C(=O)N[C@H](C(N)=O)[C@@H](C)O)C(C)C` [Example 41, N^ε28-[(4S)-4-carboxy-4-[[(4S)-4-carboxy-4-[[(4S)-4-carboxy-4-(17-carboxyheptadecanoylamino)butanoyl]amino]butanoyl]amino]butanoyl]-[Aib2,Leu10,Glu15, Arg20,Glu21,Leu27,Lys28]-Glucagon amide] (H-H[Aib]QGTFTSDLSKYLESRRAREFVQWLLK([γGlu-γGlu-γGlu-C18 diacid])T-NH2; N-terminus assumed), the IC50 came to 1.2 nM.
In the case of `CC(C)C[C@H](NC(=O)[C@H](Cc1ccc(O)cc1)NC(=O)[C@H](CCCCN)NC(=O)[C@H](CO)NC(=O)[C@H](CC(C)C)NC(=O)[C@H](CC(=O)O)NC(=O)[C@H](CO)NC(=O)[C@@H](NC(=O)[C@H](Cc1ccccc1)NC(=O)[C@@H](NC(=O)CNC(=O)[C@H](CCC(N)=O)NC(=O)C1(NC(=O)[C@@H](N)Cc2c[nH]cn2)CCC1)[C@@H](C)O)[C@@H](C)O)C(=O)N[C@@H](CCC(=O)O)C(=O)N[C@@H](CO)C(=O)N[C@@H](CCCCN)C(=O)N[C@@H](CCCNC(=N)N)C(=O)N[C@@H](C)C(=O)N[C@@H](CCCNC(=N)N)C(=O)N[C@@H](CCC(=O)O)C(=O)N[C@@H](Cc1ccccc1)C(=O)N[C@H](C(=O)N[C@@H](CCC(N)=O)C(=O)N[C@@H](Cc1c[nH]c2ccccc12)C(=O)N[C@@H](CC(C)C)C(=O)N[C@@H](CC(C)C)C(=O)N[C@@H](CCCCNC(=O)CNC(=O)[C@H](CO)NC(=O)[C@H](CCC(=O)O)NC(=O)CNC(=O)[C@H](CO)NC(=O)CC[C@H](NC(=O)CC[C@H](NC(=O)CCCCCCCCCCCCCCCCC(=O)O)C(=O)O)C(=O)O)C(=O)N[C@H](C(N)=O)[C@@H](C)O)C(C)C` [Example 36, N^ε28-[2-[[(2S)-2-[[(2S)-4-carboxy-2-[[2-[[(2S)-2-[[(4S)-4-carboxy-4-[[(4S)-4-carboxy-4-(17-carboxyheptadecanoylamino)butanoyl]amino]butanoyl]amino]-3-hydroxypropanoyl]amino]acetyl]amino]butanoyl]amino]-3-hydroxypropanoyl]amino]acetyl]-[Acb2,Leu10,Glu15,Lys17, Arg20,Glu21,Leu27,Lys28]-Glucagon amide] (I: H-H[Ac4c]QGTFTSDLSKYLESKRAREFVQWLLKT-NH2 / II: {C18 diacid-γGlu-γGlu}-SGESG; amide I:28-II:C; N-terminus assumed), the IC50 came to 0.6 nM.
As to `CC(C)C[C@H](NC(=O)[C@H](Cc1c[nH]c2ccccc12)NC(=O)[C@H](CCC(N)=O)NC(=O)[C@@H](NC(=O)[C@H](Cc1ccccc1)NC(=O)[C@H](CCC(=O)O)NC(=O)[C@H](CCCNC(=N)N)NC(=O)[C@H](C)NC(=O)[C@H](CCCNC(=N)N)NC(=O)[C@H](CCCNC(=N)N)NC(=O)C(C)(C)NC(=O)[C@H](CC(=O)O)NC(=O)[C@H](CC(C)C)NC(=O)[C@H](Cc1ccc(O)cc1)NC(=O)[C@H](CCCCN)NC(=O)[C@H](CO)NC(=O)[C@H](CC(C)C)NC(=O)[C@H](CC(=O)O)NC(=O)[C@H](CO)NC(=O)[C@@H](NC(=O)[C@H](Cc1ccccc1)NC(=O)[C@@H](NC(=O)CNC(=O)[C@H](CCC(N)=O)NC(=O)C(C)(C)NC(=O)[C@@H](N)Cc1c[nH]cn1)[C@@H](C)O)[C@@H](C)O)C(C)C)C(=O)N[C@@H](CC(C)C)C(=O)N[C@@H](CCCCNC(=O)CC[C@H](NC(=O)CC[C@H](NC(=O)COCCOCCNC(=O)COCCOCCNC(=O)CC[C@H](NC(=O)CCCCCCCCCCCCCCCCC(=O)O)C(=O)O)C(=O)O)C(=O)O)C(=O)N[C@H](C(N)=O)[C@@H](C)O` [Example 51, N^ε28-[(4S)-4-carboxy-4-[[(4S)-4-carboxy-4-[[2-[2-[2-[[2-[2-[2-[[(4S)-4-carboxy-4-(17-carboxyheptadecanoylamino)butanoyl]amino]ethoxy]ethoxy]acetyl]amino]ethoxy]ethoxy]acetyl]amino]butanoyl]amino]butanoyl]-[Aib2,Leu10,Aib16,Arg20,Glu21,Leu27,Lys28]-Glucagon amide] (H-H[Aib]QGTFTSDLSKYLD[Aib]RRAREFVQWLLK([γGlu-γGlu-AEEA-AEEA-γGlu-C18 diacid])T-NH2; N-terminus assumed), the IC50 is 1.4 nM.
As for `CC(C)C[C@H](NC(=O)[C@H](Cc1ccc(O)cc1)NC(=O)[C@H](CCCNC(=N)N)NC(=O)[C@H](CO)NC(=O)[C@H](CC(C)C)NC(=O)[C@H](CC(=O)O)NC(=O)[C@H](CO)NC(=O)[C@@H](NC(=O)[C@H](Cc1ccccc1)NC(=O)[C@@H](NC(=O)CNC(=O)[C@H](CCC(N)=O)NC(=O)C(C)(C)NC(=O)[C@@H](N)Cc1c[nH]cn1)[C@@H](C)O)[C@@H](C)O)C(=O)N[C@@H](CC(=O)O)C(=O)N[C@@H](C)C(=O)N[C@@H](CCCNC(=N)N)C(=O)N[C@@H](CCCNC(=N)N)C(=O)N[C@@H](C)C(=O)N[C@@H](CCCNC(=N)N)C(=O)N[C@@H](CC(=O)O)C(=O)N[C@@H](Cc1ccccc1)C(=O)N[C@H](C(=O)N[C@@H](CCC(N)=O)C(=O)N[C@@H](Cc1c[nH]c2ccccc12)C(=O)N[C@@H](CC(C)C)C(=O)N[C@@H](CC(C)C)C(=O)N[C@@H](CCCCNC(=O)CC[C@H](NC(=O)CC[C@H](NC(=O)CC[C@H](NC(=O)CCCCCCCCCCCCCCCCC(=O)O)C(=O)O)C(=O)O)C(=O)O)C(=O)N[C@H](C(N)=O)[C@@H](C)O)C(C)C` [Example 62, N^ε28-[(4S)-4-carboxy-4-[[(4S)-4-carboxy-4-[[(4S)-4-carboxy-4-(17-carboxyheptadecanoylamino)butanoyl]amino]butanoyl]amino]butanoyl]-[Aib2,Leu10,Arg12,Ala16,Arg20,Leu27,Lys28]-Glucagon amide] (H-H[Aib]QGTFTSDLSRYLDARRARDFVQWLLK([γGlu-γGlu-γGlu-C18 diacid])T-NH2; N-terminus assumed), the figure is 3.9 nM.
